Measured values: patent US20230391739A1, “ARYL DERIVATIVES FOR TREATING TRPM3 MEDIATED DISORDERS” (Katholieke Universiteit Leuven, priority 2020, published 2023)

target: T1, mouse TRPM3α2 (mTRPM3) ion channel (Mus musculus, UniProt J9SQF3); assay: TRPM3 ion channel driven Ca2+ uptake, Fluo-4 AM assay, PS-stimulated (mTRPM3); type: cell-based; details: TRPM3 overexpressing flip-in HEK293 cells stimulated with Pregnenolone sulfate (PS) 50 μM, activity ranges A, B, C
T1 construct: expressed in transfected cells; host or cells: flip-in HEK293
Description: Monitoring the TRPM3 Ion Channel Driven Ca^2+ Uptake.
In order to monitor the inhibition of the mouse TRPM3α2 (mTRPM3) ion channel by the compounds of the invention, a cellular system making use of an mTRPM3alpha2 or hTRPM3 overexpressing cell line (flip-in HEK293) was used. The TRPM3 channel was stimulated/opened with Pregnenolone sulfate (PS) (50 μM) which results in Ca^2+ influx.
For mTRPM3, the intracellular Ca^2+ was measured with a Calcium responsive dye, Fluor-4 AM ester (Invitrogen). Cells were cultured until a confluence of 80-90%, washed with Versene (Invitrogen) and detached from the surface by a short incubation with 0.05% Trypsin (Invitrogen). The trypsination process was stopped by the addition of complete cell culture medium (DMEM, glutamax, 10% FCS, NEAA, Pen-Strep). Cells were collected and resuspended in Krebs buffer without Calcium at RT.
Prior the cell seeding (±2000 cells/well into a black, 384 well plate (Greiner)) the diluted compound was added in the assay plate, together with the PS dissolved in Krebs buffer containing Calcium. […] Directly after cell addition the plates were read on an Envision fluorescence reader (Perkin Elmer) by an Excitation of 485 nm and emission at 535 nm.
Channel inhibition was calculated compared to a non-PS stimulated control versus a condition stimulated with PS (50 μM) with vehicle. The ability of the compounds of the invention to inhibit this activity was determined as: Percentage inhibition=[1−((RFU determined for sample with test compound present−RFU determined for sample with positive control inhibitor) divided by (RFU determined in the presence of vehicle−RFU determined for sample with positive control inhibitor))]*100.
The activities of the Example compounds tested are depicted in the table below.

T1 sequence (J9SQF3 1-1709 isoform J9SQF3-12): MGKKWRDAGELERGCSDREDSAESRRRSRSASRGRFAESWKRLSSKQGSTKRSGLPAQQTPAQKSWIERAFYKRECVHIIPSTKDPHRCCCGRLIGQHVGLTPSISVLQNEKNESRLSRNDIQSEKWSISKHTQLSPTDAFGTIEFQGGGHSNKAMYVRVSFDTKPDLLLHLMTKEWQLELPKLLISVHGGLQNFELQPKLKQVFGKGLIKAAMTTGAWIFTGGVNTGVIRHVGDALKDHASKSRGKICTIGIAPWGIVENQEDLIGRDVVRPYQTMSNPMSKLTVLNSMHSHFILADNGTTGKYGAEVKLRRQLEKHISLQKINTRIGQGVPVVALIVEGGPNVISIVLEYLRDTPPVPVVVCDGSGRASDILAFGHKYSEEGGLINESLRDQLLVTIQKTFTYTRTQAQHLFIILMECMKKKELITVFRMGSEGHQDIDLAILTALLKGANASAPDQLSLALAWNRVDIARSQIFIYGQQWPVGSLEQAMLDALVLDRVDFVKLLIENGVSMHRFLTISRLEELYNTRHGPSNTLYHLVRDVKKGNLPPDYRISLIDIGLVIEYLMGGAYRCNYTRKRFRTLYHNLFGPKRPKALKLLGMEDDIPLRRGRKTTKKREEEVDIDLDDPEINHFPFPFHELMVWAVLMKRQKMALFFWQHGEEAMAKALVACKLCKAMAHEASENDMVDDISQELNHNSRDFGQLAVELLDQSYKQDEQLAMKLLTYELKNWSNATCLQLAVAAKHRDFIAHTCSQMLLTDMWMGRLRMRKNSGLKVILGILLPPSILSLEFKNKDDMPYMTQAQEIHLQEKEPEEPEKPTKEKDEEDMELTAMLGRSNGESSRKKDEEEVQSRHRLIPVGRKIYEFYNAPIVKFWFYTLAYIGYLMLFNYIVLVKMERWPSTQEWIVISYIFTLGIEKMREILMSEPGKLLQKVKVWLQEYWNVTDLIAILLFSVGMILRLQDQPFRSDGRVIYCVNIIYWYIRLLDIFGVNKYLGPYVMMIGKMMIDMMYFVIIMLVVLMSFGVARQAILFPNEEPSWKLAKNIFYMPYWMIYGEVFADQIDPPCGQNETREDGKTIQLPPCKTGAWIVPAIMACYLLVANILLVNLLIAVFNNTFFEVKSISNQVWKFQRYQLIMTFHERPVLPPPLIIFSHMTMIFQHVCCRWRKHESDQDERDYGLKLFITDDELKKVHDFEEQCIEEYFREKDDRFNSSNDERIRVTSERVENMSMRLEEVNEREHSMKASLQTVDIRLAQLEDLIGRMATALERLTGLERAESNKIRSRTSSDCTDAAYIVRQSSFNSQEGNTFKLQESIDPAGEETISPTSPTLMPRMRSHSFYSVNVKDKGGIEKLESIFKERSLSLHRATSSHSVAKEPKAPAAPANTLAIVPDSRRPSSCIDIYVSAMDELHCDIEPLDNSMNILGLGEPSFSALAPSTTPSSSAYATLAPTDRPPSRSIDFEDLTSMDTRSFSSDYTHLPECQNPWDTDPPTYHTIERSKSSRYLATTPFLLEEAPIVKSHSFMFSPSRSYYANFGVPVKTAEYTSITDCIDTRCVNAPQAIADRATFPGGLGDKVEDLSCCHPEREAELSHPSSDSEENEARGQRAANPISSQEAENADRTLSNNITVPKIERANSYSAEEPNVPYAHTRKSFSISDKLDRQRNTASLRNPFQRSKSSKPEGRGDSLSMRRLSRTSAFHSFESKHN

**Q.** Which IC50 does the source give for COc1ccc(COc2ccc3oc(C)c(C(=O)O)c3c2)cc1 [Cpd 014, 5-((4-methoxybenzyl)oxy)-2-methylbenzofuran-3-carboxylic acid] here?
**A.** The IC50 was 1000 to 20000 nM.

**Q.** How did the IC50 turn out when Cc1oc2ccc(OCc3c(F)cccc3Cl)cc2c1C(N)=O [Cpd 041, 5-((2-chloro-6-fluorobenzyl)oxy)-2-methylbenzofuran-3-carboxamide] was run?
**A.** The IC50 was under 1000 nM.

**Q.** Cc1oc2ccc(OCc3ccccc3)cc2c1C(=O)NC1CCN2CCCC12 (single isomer, unassigned) [Cpd 144-Dia 1, 5-(benzyloxy)-N-(hexahydro-1H-pyrrolizin-1-yl)-2-methylbenzofuran-3-carboxamide] was tested. Which IC50 did it give?
**A.** Its IC50 is under 1000 nM.

**Q.** With Cc1oc2ccc(OCc3ccccc3C(F)(F)F)cc2c1C(=O)NC1CCNC1=O (stereo not shown) [Cpd 219, 2-methyl-N-(2-oxopyrrolidin-3-yl)-5-((2-(trifluoromethyl)benzyl)oxy)benzofuran-3-carboxamide] as the molecule, how does the IC50 read?
**A.** Its IC50 is under 1000 nM.

**Q.** Cc1cc(CNC(=O)c2c(C)oc3ccc(OCc4ccccc4)cc23)no1 [Cpd 105, 5-(benzyloxy)-2-methyl-N-((5-methylisoxazol-3-yl)methyl)benzofuran-3-carboxamide] was tested. Which IC50 did it give?
**A.** Its IC50 is under 1000 nM.

**Q.** With Cc1oc2ccc(OC(C)c3ccccc3C(F)(F)F)cc2c1C(=O)N[C@H]1CCN(C(=O)OC(C)(C)C)C1 (mixture of isomers) [Cpd 267, rac-tert-butyl (3R)-3-(2-methyl-5-(1-(2-(trifluoromethyl)phenyl)ethoxy)benzofuran-3-carboxamido)pyrrolidine-1-carboxylate] as the molecule, how does the IC50 read?
**A.** The IC50 was over 20000 nM.

**Q.** How did the IC50 turn out when Cc1cc(C)c(CNC(=O)c2c(C)oc3ccc(OCc4ccccc4)cc23)c(=O)[nH]1 [Cpd 200, 5-(benzyloxy)-N-((4,6-dimethyl-2-oxo-1,2-dihydropyridin-3-yl)methyl)-2-methylbenzofuran-3-carboxamide] was run?
**A.** The IC50 was over 20000 nM.

**Q.** Cc1oc2ccc(OC(C)(C)c3ccccc3)cc2c1C(=O)NC1(CO)CCOCC1 [Cpd 316, N-(4-(hydroxymethyl)tetrahydro-2H-pyran-4-yl)-2-methyl-5-((2-phenylpropan-2-yl)oxy)benzofuran-3-carboxamide] was tested. Which IC50 did it give?
**A.** Its IC50 is under 1000 nM.

**Q.** Which IC50 does the source give for Cc1oc2cc(Cl)c(OCc3ccccc3)cc2c1C(=O)NC1CNCC1(F)F (single isomer, unassigned) [Cpd 300-En 1, 5-(benzyloxy)-6-chloro-N-(4,4-difluoropyrrolidin-3-yl)-2-methylbenzofuran-3-carboxamide] here?
**A.** The IC50 was 1000 to 20000 nM.

**Q.** Cc1oc2ccc(OCc3ccccc3)cc2c1C(=O)NC1CCN(C)C1 (stereo not shown) [Cpd 076, 5-(benzyloxy)-2-methyl-N-(1-methylpyrrolidin-3-yl)benzofuran-3-carboxamide] was tested. Which IC50 did it give?
**A.** Its IC50 is under 1000 nM.

**Q.** For Cc1oc2ccc(OCc3ccccc3)cc2c1C(=O)NC1CCC(N(C)C)CC1 (stereo not shown) [Cpd 186, 5-(benzyloxy)-N-(4-(dimethylamino)cyclohexyl)-2-methylbenzofuran-3-carboxamide], which IC50 is on record?
**A.** Its IC50 is under 1000 nM.

**Q.** How did the IC50 turn out when Cc1oc2ccc(OCc3ccccc3)cc2c1C(=O)Nc1ccncc1 [Cpd 060, 5-(benzyloxy)-2-methyl-N-(pyridin-4-yl)benzofuran-3-carboxamide] was run?
**A.** The IC50 was under 1000 nM.

**Q.** How did the IC50 turn out when COC(=O)[C@@H]1C[C@H](NC(=O)c2c(C)oc3ccc(OCc4ccccc4)cc23)CN1 [Cpd 191, methyl (2S,4S)-4-(5-(benzyloxy)-2-methylbenzofuran-3-carboxamido)pyrrolidine-2-carboxylate] was run?
**A.** The IC50 was under 1000 nM.

**Q.** Cc1oc2ccc(OCc3ccccc3)cc2c1C(=O)NS(=O)(=O)C(F)(F)F [Cpd 195, 5-(benzyloxy)-2-methyl-N-((trifluoromethyl)sulfonyl)benzofuran-3-carboxamide] was tested. Which IC50 did it give?
**A.** Its IC50 is over 20000 nM.

**Q.** With Cc1oc2ccc(COc3ccccc3F)cc2c1C(=O)NC(CO)C(N)=O (single isomer, unassigned) [Cpd 321-En 1, N-(1-amino-3-hydroxy-1-oxopropan-2-yl)-5-((2-fluorophenoxy)methyl)-2-methylbenzofuran-3-carboxamide] as the molecule, how does the IC50 read?
**A.** Its IC50 is 1000 to 20000 nM.

**Q.** With Cc1oc2ccc(OCc3ccccc3F)cc2c1C(=O)NC(C)(C)CO [Cpd 313, 5-((2-fluorobenzyl)oxy)-N-(1-hydroxy-2-methylpropan-2-yl)-2-methylbenzofuran-3-carboxamide] as the molecule, how does the IC50 read?
**A.** Its IC50 is under 1000 nM.

**Q.** Cc1oc2ccc(OCc3ccccc3C#N)cc2c1C(=O)O [Cpd 010, 5-((2-cyanobenzyl)oxy)-2-methylbenzofuran-3-carboxylic acid] was tested. Which IC50 did it give?
**A.** Its IC50 is 1000 to 20000 nM.

**Q.** For Cc1oc2ccc(OCc3ccccc3)cc2c1C(=O)N1CCOCC1 [Cpd 050, (5-(benzyloxy)-2-methylbenzofuran-3-yl)(morpholino)methanone], which IC50 is on record?
**A.** The IC50 was over 20000 nM.

**Q.** With Cc1oc2ccc(OCc3ccccc3Cl)cc2c1C(=O)N[C@@H](CO)C(N)=O [Cpd 338, (S)—N-(1-Amino-3-hydroxy-1-oxopropan-2-yl)-5-((2-chlorobenzyl)oxy)-2-methylbenzofuran-3-carboxamide] as the molecule, how does the IC50 read?
**A.** Its IC50 is under 1000 nM.

**Q.** For Cc1oc2ccc(OCc3ccccc3F)cc2c1C(=O)O [Cpd 008, 5-((2-fluorobenzyl)oxy)-2-methylbenzofuran-3-carboxylic acid], which IC50 is on record?
**A.** Its IC50 is under 1000 nM.

**Q.** Cc1oc2ccc(OCc3ccccc3)cc2c1C(=O)NC1(CO)COC1 [Cpd 092, 5-(benzyloxy)-N-(3-(hydroxymethyl)oxetan-3-yl)-2-methylbenzofuran-3-carboxamide] was tested. Which IC50 did it give?
**A.** The IC50 was under 1000 nM.

**Q.** Cc1oc2c(Cl)cc(OCc3ccccc3)cc2c1C(=O)NC1CNCC1(F)F (single isomer, unassigned) [Cpd 304-En 1, 5-(benzyloxy)-7-chloro-N-(4,4-difluoropyrrolidin-3-yl)-2-methylbenzofuran-3-carboxamide] was tested. Which IC50 did it give?
**A.** Its IC50 is 1000 to 20000 nM.

**Q.** Cc1oc2ccc(OCc3ccccc3)cc2c1C(=O)NCC(O)c1cccnc1 (stereo not shown) [Cpd 174, 5-(benzyloxy)-N-(2-hydroxy-2-(pyridin-3-yl)ethyl)-2-methylbenzofuran-3-carboxamide] was tested. Which IC50 did it give?
**A.** The IC50 was 1000 to 20000 nM.

**Q.** Which IC50 does the source give for Cc1oc2ccc(OC(C)c3ccccc3)cc2c1C(=O)N[C@@H](CO)C(N)=O (single isomer, unassigned) [Cpd 336-Dia 1] here?
**A.** The IC50 was under 1000 nM.

**Q.** With Cc1oc2ccc(OCc3ccccc3)cc2c1C(=O)N1CCN(C)CC1 [Cpd 072, (5-(benzyloxy)-2-methylbenzofuran-3-yl)(4-methylpiperazin-1-yl)methanone] as the molecule, how does the IC50 read?
**A.** The IC50 was over 20000 nM.

**Q.** Cc1oc2ccc(OCc3ccccc3)cc2c1C(=O)NC1CNCCC1F (single isomer, unassigned) [Cpd 130-Dia 1] was tested. Which IC50 did it give?
**A.** The IC50 was under 1000 nM.

**Q.** For Cc1oc2ccc(OCc3cccc(OC(F)(F)F)c3)cc2c1C(=O)NC1CCN(C)CC1 [Cpd 244, 2-methyl-N-(1-methylpiperidin-4-yl)-5-((3-(trifluoromethoxy)benzyl)oxy)benzofuran-3-carboxamide], which IC50 is on record?
**A.** The IC50 was 1000 to 20000 nM.

**Q.** Which IC50 does the source give for Cc1oc2ccc(OCc3ccccc3)cc2c1C(=O)NC1CCN(c2ncccn2)CC1 [Cpd 230, 5-(benzyloxy)-2-methyl-N-(1-(pyrimidin-2-yl)piperidin-4-yl)benzofuran-3-carboxamide] here?
**A.** Its IC50 is under 1000 nM.

**Q.** CN1CCC(NC(=O)c2coc3ccc(OCc4ccccc4)cc23)CC1 [Cpd 081, 5-(benzyloxy)-N-(1-methylpiperidin-4-yl)benzofuran-3-carboxamide] was tested. Which IC50 did it give?
**A.** The IC50 was 1000 to 20000 nM.

**Q.** For Cc1oc2cc(F)c(OCc3ccccc3)cc2c1C(=O)NC1CNCC1(F)F (single isomer, unassigned) [Cpd 302-En 1, 5-(benzyloxy)-N-(4,4-difluoropyrrolidin-3-yl)-6-fluoro-2-methylbenzofuran-3-carboxamide], which IC50 is on record?
**A.** The IC50 was under 1000 nM.

**Q.** Which IC50 does the source give for Cc1oc2ccc(OCc3ccccc3)cc2c1C(=O)NC1CCC(O)C1 (stereo not shown) [Cpd 086, 5-(benzyloxy)-N-(3-hydroxycyclopentyl)-2-methylbenzofuran-3-carboxamide] here?
**A.** The IC50 was under 1000 nM.

**Q.** Which IC50 does the source give for Cc1oc2ccc(OCc3ccccc3F)cc2c1C(=O)NC1(CO)CCOC1 (single isomer, unassigned) [Cpd 327-En 1, 5-((2-fluorobenzyl)oxy)-N-(3-(hydroxymethyl)tetrahydrofuran-3-yl)-2-methylbenzofuran-3-carboxamide] here?
**A.** Its IC50 is under 1000 nM.

**Q.** With CCN1CCC(NC(=O)c2c(C)oc3ccc(OCc4ccccc4)cc23)C1=O (stereo not shown) [Cpd 147, 5-(benzyloxy)-N-(1-ethyl-2-oxopyrrolidin-3-yl)-2-methylbenzofuran-3-carboxamide] as the molecule, how does the IC50 read?
**A.** The IC50 was under 1000 nM.

**Q.** With Cc1oc2ccc(OCc3ccccc3F)cc2c1C(=O)NC1(CO)CCOCC1 [Cpd 197, 5-((2-fluorobenzyl)oxy)-N-(4-(hydroxymethyl)tetrahydro-2H-pyran-4-yl)-2-methylbenzofuran-3-carboxamide] as the molecule, how does the IC50 read?
**A.** Its IC50 is under 1000 nM.

**Q.** Cc1oc2ccc(OCc3ccccc3)cc2c1C(=O)NCC1CCN(C(=O)OC(C)(C)C)CC1 [Cpd 253, tert-butyl 4-((5-(benzyloxy)-2-methylbenzofuran-3-carboxamido)methyl)piperidine-1-carboxylate] was tested. Which IC50 did it give?
**A.** Its IC50 is over 20000 nM.

**Q.** How did the IC50 turn out when Cc1oc2ccc(OCc3ccccc3)cc2c1C(=O)NC1CCNC(C)C1 (racemic) [Cpd 114, rac-5-(benzyloxy)-2-methyl-N-(trans-2-methylpiperidin-4-yl)benzofuran-3-carboxamide] was run?
**A.** Its IC50 is under 1000 nM.

**Q.** Cc1oc2c(C)cc(OCc3ccccc3)cc2c1C(=O)NC1CNCC1(F)F (single isomer, unassigned) [Cpd 307-En 1, 5-(benzyloxy)-N-(4,4-difluoropyrrolidin-3-yl)-2,7-dimethylbenzofuran-3-carboxamide] was tested. Which IC50 did it give?
**A.** Its IC50 is 1000 to 20000 nM.
